According to ChEMBL document CHEMBL1201862, “PubChem BioAssay data set” (2004):
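48-hour exposure; five concentrations; linearly interpolated endpoints. Here, GI50 denotes the concentration required for 50% inhibition of growth.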 The source made the active and inactive calls. Rule as the data show it: active = GI50 up to about 1.1 µM and inactive = higher.

Key:
Experiment in all cases: NCI anticancer screen, dose series, 48 h
OVCAR-3 = tested on: OVCAR-3
COLO 205 = tested on: COLO 205
ACHN = tested on: ACHN
Malme-3M = tested on: Malme-3M
SW-620 = tested on: SW-620
U-251 = tested on: U-251
HCT-116 = tested on: HCT-116
K562 = tested on: K562
NCI-H460 = tested on: NCI-H460
SR = tested on: SR
RPMI-8226 = tested on: RPMI-8226
CAKI-1 = tested on: CAKI-1
OVCAR-5 = tested on: OVCAR-5
SK-OV-3 = tested on: SK-OV-3
NCI-H522 = tested on: NCI-H522

COC1(C)C(=O)N2C1N(C(=O)OCc1ccccc1)CC2(C)C (configuration not stated)
GI50 (OVCAR-3): > 100 µM (inactive) | GI50 (COLO 205): > 100 µM (inactive) | GI50 (ACHN): > 100 µM (inactive) | GI50 (Malme-3M): > 100 µM (inactive) | GI50 (SW-620): > 100 µM (inactive) | GI50 (U-251): > 100 µM (inactive) | GI50 (HCT-116): > 100 µM (inactive) | GI50 (K562): > 100 µM (inactive) | GI50 (NCI-H460): > 100 µM (inactive) | GI50 (SR): > 100 µM (inactive) | GI50 (RPMI-8226): > 100 µM (inactive)

Cc1[nH]c2ccccc2c1C(=O)/C=C/c1ccccc1O
GI50 (OVCAR-3): > 100 µM (inactive) | GI50 (COLO 205): > 100 µM (inactive) | GI50 (ACHN): > 100 µM (inactive) | GI50 (CAKI-1): > 100 µM (inactive) | GI50 (Malme-3M): > 100 µM (inactive) | GI50 (SW-620): > 100 µM (inactive) | GI50 (OVCAR-5): > 100 µM (inactive) | GI50 (SK-OV-3): > 100 µM (inactive) | GI50 (U-251): > 100 µM (inactive) | GI50 (HCT-116): > 100 µM (inactive) | GI50 (K562): > 100 µM (inactive) | GI50 (NCI-H460): > 100 µM (inactive) | GI50 (SR): > 100 µM (inactive) | GI50 (NCI-H522): > 100 µM (inactive)

COc1ccc2c(c1)c(=O)c1c(NCCN(C)C)ccc3nnn2c31
GI50 (OVCAR-3): 4.24 µM (inactive) | GI50 (COLO 205): 1.36 µM (inactive) | GI50 (ACHN): 2.4 µM (inactive) | GI50 (CAKI-1): 3.01 µM (inactive) | GI50 (Malme-3M): 3.94 µM (inactive) | GI50 (SW-620): 0.7 µM (active) | GI50 (OVCAR-5): 4.06 µM (inactive) | GI50 (SK-OV-3): 4.01 µM (inactive) | GI50 (U-251): 3.08 µM (inactive) | GI50 (HCT-116): 0.655 µM (active) | GI50 (K562): 1.6 µM (inactive) | GI50 (NCI-H460): 1.61 µM (inactive) | GI50 (SR): 0.493 µM (active) | GI50 (NCI-H522): 2.7 µM (inactive) | GI50 (RPMI-8226): 1.65 µM (inactive)

Cc1ccc(S(=O)(=O)C(C#N)c2nc3ccccc3nc2-n2cccn2)cc1 (configuration not stated)
GI50 (OVCAR-3): > 100 µM (inactive) | GI50 (COLO 205): > 100 µM (inactive) | GI50 (ACHN): > 100 µM (inactive) | GI50 (Malme-3M): > 100 µM (inactive) | GI50 (OVCAR-5): > 100 µM (inactive) | GI50 (SK-OV-3): > 100 µM (inactive) | GI50 (U-251): > 100 µM (inactive) | GI50 (HCT-116): > 100 µM (inactive) | GI50 (K562): > 100 µM (inactive) | GI50 (NCI-H460): > 100 µM (inactive) | GI50 (RPMI-8226): > 100 µM (inactive)

COc1ccc(C(c2ccc(C(C)C)cc(OC)c2=O)c2ccc(C(C)C)cc(OC)c2=O)cc1
GI50 (OVCAR-3): 13.2 µM (inactive) | GI50 (COLO 205): 17.2 µM (inactive) | GI50 (CAKI-1): 18.9 µM (inactive) | GI50 (Malme-3M): 16.5 µM (inactive) | GI50 (SW-620): 15.5 µM (inactive) | GI50 (OVCAR-5): 20.1 µM (inactive) | GI50 (SK-OV-3): 18.4 µM (inactive) | GI50 (U-251): 13.7 µM (inactive) | GI50 (HCT-116): 11.1 µM (inactive) | GI50 (K562): 10.7 µM (inactive) | GI50 (NCI-H460): 14.6 µM (inactive) | GI50 (SR): 10.4 µM (inactive) | GI50 (NCI-H522): 14.4 µM (inactive) | GI50 (RPMI-8226): 5.06 µM (inactive)

COCCOCC(=O)N(CCn1ccc(NC(c2ccccc2)(c2ccccc2)c2ccccc2)nc1=O)CCn1cnc2nc(N)[nH]c(=O)c21
GI50 (OVCAR-3): > 100 µM (inactive) | GI50 (COLO 205): > 100 µM (inactive) | GI50 (ACHN): > 100 µM (inactive) | GI50 (CAKI-1): > 100 µM (inactive) | GI50 (Malme-3M): > 100 µM (inactive) | GI50 (SW-620): > 100 µM (inactive) | GI50 (OVCAR-5): > 100 µM (inactive) | GI50 (U-251): > 100 µM (inactive) | GI50 (HCT-116): > 100 µM (inactive) | GI50 (K562): > 100 µM (inactive) | GI50 (NCI-H460): > 100 µM (inactive) | GI50 (SR): > 100 µM (inactive) | GI50 (RPMI-8226): > 100 µM (inactive)

COC1OC(C)C2OC(C)(C)OC2C1OC(C)=O (configuration not stated)
GI50 (OVCAR-3): > 100 µM (inactive) | GI50 (COLO 205): > 100 µM (inactive) | GI50 (ACHN): > 100 µM (inactive) | GI50 (CAKI-1): > 100 µM (inactive) | GI50 (Malme-3M): > 100 µM (inactive) | GI50 (SW-620): > 100 µM (inactive) | GI50 (OVCAR-5): > 100 µM (inactive) | GI50 (U-251): > 100 µM (inactive) | GI50 (HCT-116): > 100 µM (inactive) | GI50 (K562): > 100 µM (inactive) | GI50 (NCI-H460): > 100 µM (inactive) | GI50 (SR): > 100 µM (inactive) | GI50 (NCI-H522): > 100 µM (inactive) | GI50 (RPMI-8226): > 100 µM (inactive)

C=C1C(=O)OC2C=C(CCC(C)=O)C(C)C(OC(C)=O)CC12 (configuration not stated)
GI50 (OVCAR-3): 12.7 µM (inactive) | GI50 (ACHN): 6.84 µM (inactive) | GI50 (CAKI-1): 8.83 µM (inactive) | GI50 (Malme-3M): 11.2 µM (inactive) | GI50 (SW-620): 0.313 µM (active) | GI50 (OVCAR-5): 16.1 µM (inactive) | GI50 (U-251): 17.1 µM (inactive) | GI50 (HCT-116): 5.19 µM (inactive) | GI50 (K562): 3.86 µM (inactive) | GI50 (NCI-H460): 18.7 µM (inactive) | GI50 (SR): 11.8 µM (inactive) | GI50 (RPMI-8226): 4.52 µM (inactive)

COC(=O)CCSC(=O)Nc1ccccc1Cl
GI50 (OVCAR-3): > 100 µM (inactive) | GI50 (COLO 205): > 100 µM (inactive) | GI50 (ACHN): > 100 µM (inactive) | GI50 (CAKI-1): > 100 µM (inactive) | GI50 (SW-620): > 100 µM (inactive) | GI50 (OVCAR-5): > 100 µM (inactive) | GI50 (U-251): > 100 µM (inactive) | GI50 (HCT-116): > 100 µM (inactive) | GI50 (K562): > 100 µM (inactive) | GI50 (NCI-H460): > 100 µM (inactive) | GI50 (SR): > 100 µM (inactive) | GI50 (NCI-H522): 1.36 µM (inactive) | GI50 (RPMI-8226): > 100 µM (inactive)

CN(C)CCNC(=O)c1cccc2cc3ccc4ccccc4c3nc12
GI50 (OVCAR-3): 0.215 µM (active) | GI50 (COLO 205): 0.0414 µM (active) | GI50 (ACHN): 0.0276 µM (active) | GI50 (CAKI-1): 0.0413 µM (active) | GI50 (Malme-3M): 0.268 µM (active) | GI50 (SW-620): 0.0306 µM (active) | GI50 (OVCAR-5): 0.214 µM (active) | GI50 (SK-OV-3): 0.121 µM (active) | GI50 (U-251): 0.0755 µM (active) | GI50 (HCT-116): 0.0294 µM (active) | GI50 (K562): 0.0653 µM (active) | GI50 (NCI-H460): 0.0149 µM (active) | GI50 (SR): 0.0246 µM (active) | GI50 (NCI-H522): 0.122 µM (active) | GI50 (RPMI-8226): 0.145 µM (active)
